Marks after values point to notes of the source that are not given here. Ends that are not written are not given here.
Assays:
Type in all cases: cell-based
[1] = test system: clinical Salmonella isolates; assay: MIC, broth microdilution; conditions: for MIC: MHB, 5 × 10^5 CFU/mL, 37 °C, 18 h, duplicate
Description: (§1) All 12 isolates of Salmonella used in this study were clinical isolates and anonymous left-overs from laboratory diagnoses. They were maintained in a 20% glycerol (Sigma-Aldrich) stock at −80 °C and further cultured on Mueller-Hinton agar (MHA, Oxoid, Hampshire, UK) at 37 °C for 18 h to obtain single colonies for antimicrobial assays. This study was approved by the Ethics Committee of the Faculty of Tropical Medicine (Mahidol University, Bangkok, Thailand; MUTM-EXMPT 2017-007).
MIC was determined using the broth microdilution method described by Hancock with some modifications. Briefly, bacterial colonies grown from the MHA were prepared in MHB (Oxoid) as a 0.5 McFarland suspension (which is equal to 1 × 10^8 CFU/mL), and was further 200-fold diluted by the MHB (5 × 10^5 CFU/mL). The bacterial suspension (50 µL) was mixed with 2-fold serial dilutions of peptide (5.5 µL) achieving final concentrations of 256 to 1 µM using a round-bottom polypropylene (PP) 96-well plate (Greiner Bio-One). The plate was incubated at 37 °C for 18 h including incubating peptide free-bacteria as positive growth control, and MHB as negative growth control. After the incubation, the lowest concentration with no visible growth was defined as a MIC value. The assay was performed in a duplicate manner.

sheep red blood cells = assay: Hemolytic activity assay; conditions: for HC50 (hemolytic concentration 50): concentration inducing 50% hemolysis of sRBCs, nonlinear regression, unit (µM); for percent hemolysis: 2% sRBCs in PBS, 37 °C, 1 h, OD540, triplicate mean; for concentration required for the initiation of hemolysis: sRBCs, 60 min, 256–1 µM tested
Description: The peptide toxicity to the mammalian system was screened based on the hemolytic test by measuring the hemoglobin released from ruptured red blood cells (RBCs). In this study, sheep RBCs (sRBCs) were employed. They were thrice washed and prepared as a suspension in phosphate-buffered saline (PBS, Oxoid). A suspension of 2% sRBCs was incubated with 2-fold serial dilutions of peptide (final concentrations; 256 to 1 µM in a total volume of 200 µL) at 37 °C for 1 h. The solutions of 0.1% (final concentration) Triton X-100 (Sigma-Aldrich) and PBS containing the peptide solvent were used instead of the peptides as the controls of hemolysis at 100% and 0%, respectively. Thereafter, the post-incubated suspensions were centrifuged (1000× g, 3 min) to pelletize residual sRBCs. The supernatants were then transferred into a flat-bottom PS 96-well plate and were measured the absorbance at 540 nm (OD540) by a microplate reader. The test was conducted in triplicate and the mean OD540 was used to calculate the hemolysis (%) as; ((OD540 (peptide) − OD540 (PBS + peptide solvent))/(OD540 (0.1% Triton X-100) − OD540 (PBS + peptide solvent))) × 100. The hemolytic concentration 50 (HC50), a concentration inducing 50% hemolysis, was determined.
The GraphPad Prism version 7.00 (GraphPad Software, La Jolla, CA, USA) was applied for all statistical analyses and data visualizations. Replicate quantitative results were calculated and shown as mean ± SD, unless otherwise specified. The HC50 values were determined using nonlinear regression analysis. The paired t-test and repeated measures one-way ANOVA with Tukey’s multiple comparison test were applied to compare between 2 groups and among 3 or more groups, respectively. The comparisons were considered as a statistically significant difference when a p-value < 0.05.

[2] = test system: clinical Salmonella isolates; assay: MBC, drop plate method, and MBC/MIC mode of action; conditions: for GM of MBC: geometric mean over 12 clinical Salmonella isolates; for MBC: drop plate on MHA from MIC plate, 37 °C, 18 h, thrice
Description: as §1
The plate derived from the MIC assay was immediately tested for the MBC using a drop plate method. A volume of 10 µL of the culture from individual wells at MIC, 2MIC, and 4MIC was dropped on MHA plates. […] The experiment was thrice performed.
In order to determine whether the peptides have bacteriostatic or bactericidal activity, a ratio of MBC to MIC (MBC/MIC) was applied. The ratio >4 was indicative of bacteriostatic peptide, and ≤4 was inferred as bactericidal peptide.

[3] = isolate 5 (Enteritidis, blood; resistant AMP, SXT, KZ)
[4] = isolate 7 (Typhimurium, blood; resistant AMP, CN, TE, NA, SXT)
[5] = isolate 55 (Typhimurium, blood; resistant AMP, SXT, C, TE)
[6] = isolate 61 (Enteritidis, blood; resistant AMP, TE, NA, SXT)
[7] = isolate 69 (Typhimurium, stool; resistant AMP)
[8] = isolate 76 (Enteritidis, CSF; resistant NA)
[9] = isolate 78 (Enteritidis, blood; resistant TE, CIP, NA, SXT)
[10] = isolate 107 (Typhimurium, stool; susceptible)
[11] = isolate 11 (I 1,4:i:-, blood; resistant AMP, TE, NA, SXT, C)
[12] = isolate 18 (Stanley, urine; resistant TE, SXT, C)
[13] = isolate 26 (Typhimurium, urine; resistant TZP, TE, NA)
[14] = isolate 27 (Typhimurium, stool; resistant AMP, TE, NA, SXT, CIP)

Substance: FIGAIARLLSK [BmKn-22, reference compound]
- MIC [1, 3]: > 256 µM
- MIC [1, 4]: > 256 µM
- MIC [1, 5]: > 256 µM
- MIC [1, 6]: > 256 µM
- MIC [1, 7]: > 256 µM
- MIC [1, 8]: > 256 µM
- MIC [1, 9]: > 256 µM
- MIC [1, 10]: > 256 µM

Substance: KLKLLLLLKL [KLK1, reference compound]
- MIC [1, 3]: > 256 µM
- MIC [1, 4]: > 256 µM
- MIC [1, 5]: > 256 µM
- MIC [1, 6]: > 256 µM
- MIC [1, 7]: > 256 µM
- MIC [1, 8]: > 256 µM
- MIC [1, 9]: > 256 µM
- MIC [1, 10]: > 256 µM

Substance: FFFIRRIARLLRRIF-NH2 [2F-Kn2-5R-NH2]
- HC50 (hemolytic concentration 50) (sheep red blood cells): 5.60 µM
- percent hemolysis (sheep red blood cells; peptide 1 µM): 6.1%
- percent hemolysis (sheep red blood cells; peptide 2 µM): 15%
- percent hemolysis (sheep red blood cells; peptide 4 µM): 33.7 * %
- percent hemolysis (sheep red blood cells; peptide 8 µM): 61.6 * %
- percent hemolysis (sheep red blood cells; peptide 16 µM): 96.2%
- percent hemolysis (sheep red blood cells; peptide 32 µM): 97.6%
- percent hemolysis (sheep red blood cells; peptide 64 µM): 97.9%
- percent hemolysis (sheep red blood cells; peptide 128 µM): 99.8%
- percent hemolysis (sheep red blood cells; peptide 256 µM): 100%
- concentration required for the initiation of hemolysis (sheep red blood cells): 1000 nM
- MIC [1, 3]: 4 µM
- MIC [1, 4]: 4 µM
- MIC [1, 11]: 4 µM
- MIC [1, 12]: 8 µM
- MIC [1, 13]: 8 µM
- MIC [1, 14]: 8 µM
- MIC [1, 5]: 8 µM
- MIC [1, 6]: 4 µM
- MIC [1, 7]: 4 µM
- MIC [1, 8]: 8 µM
- MIC [1, 9]: 8 µM
- MIC [1, 10]: 4 µM
- GM of MBC [2]: 5.66 µM
- MBC ([2]; isolate 5 (Enteritidis)): 4 µM
- MBC ([2]; isolate 7 (Typhimurium)): 4 µM
- MBC ([2]; isolate 11 (I 1,4:i:-)): 4 µM
- MBC ([2]; isolate 18 (Stanley)): 8 µM
- MBC ([2]; isolate 26 (Typhimurium)): 8 µM
- MBC ([2]; isolate 27 (Typhimurium)): 8 µM
- MBC ([2]; isolate 55 (Typhimurium)): 8 µM
- MBC ([2]; isolate 61 (Enteritidis)): 4 µM
- MBC ([2]; isolate 69 (Typhimurium)): 4 µM
- MBC ([2]; isolate 76 (Enteritidis)): 8 µM
- MBC ([2]; isolate 78 (Enteritidis)): 8 µM
- MBC ([2]; isolate 107 (Typhimurium)): 4 µM

Substance: FPSFLVGR [Pug-4, reference compound]
- MIC [1, 3]: > 256 µM
- MIC [1, 4]: > 256 µM
- MIC [1, 5]: > 256 µM
- MIC [1, 6]: > 256 µM
- MIC [1, 7]: > 256 µM
- MIC [1, 8]: > 256 µM
- MIC [1, 9]: > 256 µM
- MIC [1, 10]: > 256 µM

Substance: KLKLLLLLKLK-NH2 [KLK, reference compound]
- MIC [1, 3]: > 256 µM
- MIC [1, 4]: > 256 µM
- MIC [1, 5]: > 256 µM
- MIC [1, 6]: > 256 µM
- MIC [1, 7]: > 256 µM
- MIC [1, 8]: > 256 µM
- MIC [1, 9]: > 256 µM
- MIC [1, 10]: > 256 µM

Substance: FIGAIARLLSKIF [BmKn-2, reference compound]
- MIC values, range over isolates ([1]; eight clinical Salmonella isolates, peptide 256–1 µM tested): 64 to 256 µM
- MIC [1, 3]: 128 µM
- MIC [1, 4]: 128 µM
- MIC [1, 5]: 256 µM
- MIC [1, 6]: 256 µM
- MIC [1, 7]: 256 µM
- MIC [1, 8]: 64 µM
- MIC [1, 9]: 128 µM
- MIC [1, 10]: 64 µM

Substance: FIRRIARLLRRIF [Kn2-5R]
- HC50 (hemolytic concentration 50) (sheep red blood cells): 886.50 µM
- percent hemolysis (sheep red blood cells; peptide 1 µM): 0%
- percent hemolysis (sheep red blood cells; peptide 2 µM): 0%
- percent hemolysis (sheep red blood cells; peptide 4 µM): 0.4%
- percent hemolysis (sheep red blood cells; peptide 8 µM): 0.7 * %
- percent hemolysis (sheep red blood cells; peptide 16 µM): 1.4%
- percent hemolysis (sheep red blood cells; peptide 32 µM): 1.5%
- percent hemolysis (sheep red blood cells; peptide 64 µM): 1.8%
- percent hemolysis (sheep red blood cells; peptide 128 µM): 2.4%
- percent hemolysis (sheep red blood cells; peptide 256 µM): 10.6%
- concentration required for the initiation of hemolysis (sheep red blood cells): 4000 nM
- MIC [1, 3]: 8 µM
- MIC [1, 4]: 8 µM
- MIC [1, 11]: 8 µM
- MIC [1, 12]: 8 µM
- MIC [1, 13]: 8 µM
- MIC [1, 14]: 8 µM
- MIC [1, 5]: 8 µM
- MIC [1, 6]: 8 µM
- MIC [1, 7]: 8 µM
- MIC [1, 8]: 8 µM
- MIC [1, 9]: 8 µM
- MIC [1, 10]: 8 µM
- GM of MBC [2]: 8 µM
- MBC ([2]; isolate 5 (Enteritidis)): 8 µM
- MBC ([2]; isolate 7 (Typhimurium)): 8 µM
- MBC ([2]; isolate 11 (I 1,4:i:-)): 8 µM
- MBC ([2]; isolate 18 (Stanley)): 8 µM
- MBC ([2]; isolate 26 (Typhimurium)): 8 µM
- MBC ([2]; isolate 27 (Typhimurium)): 8 µM
- MBC ([2]; isolate 55 (Typhimurium)): 8 µM
- MBC ([2]; isolate 61 (Enteritidis)): 8 µM
- MBC ([2]; isolate 69 (Typhimurium)): 8 µM
- MBC ([2]; isolate 76 (Enteritidis)): 8 µM
- MBC ([2]; isolate 78 (Enteritidis)): 8 µM
- MBC ([2]; isolate 107 (Typhimurium)): 8 µM

Substance: LLKLFFPFLETGE [Pug-1, reference compound]
- MIC [1, 3]: > 256 µM
- MIC [1, 4]: > 256 µM
- MIC [1, 5]: > 256 µM
- MIC [1, 6]: > 256 µM
- MIC [1, 7]: > 256 µM
- MIC [1, 8]: > 256 µM
- MIC [1, 9]: > 256 µM
- MIC [1, 10]: > 256 µM

Source: paper PMC8348142, “Antimicrobial Peptide Modifications against Clinically Isolated Antibiotic-Resistant Salmonella” (Molecules, 2021)
